Reference: US10076519B2 (CYTOKINETICS, INC., priority 2010, dated 2018)

Test system: rabbit skeletal myofibrils (fast skeletal myofibrils)
Test: Activation of fast skeletal myofibrils (PUMA assay, PK/LDH-coupled ATPase at pCa25)
Assay type: biochemical
Details: AC1.4 determined according to the procedure of Example 39; reported as class symbols
Method in brief: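 ATPase activity of Triton-washed rabbit skeletal myofibrils, roughly 90% fast fibres, tracked by NADH loss at 340 nm through a PK/LDH-coupled ADP-regenerating system. Calcium set to 25% of maximal activity (pCa25), in PIPES 12 mM pH 6.8 with 2 mM MgCl2 and 1 mM DTT; AC1.4 reported.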

Row | Mean AC1.4 | Compound
1 | B (B=1-10 uM) | CC(C)(CNc1ccc(-c2ccc(C(N)=O)cn2)nn1)c1ccc(F)cc1 [6-(6-{[2-(4-fluorophenyl)-2-methylpropyl]amino}pyridazin-3-yl)pyridine-3-carboxamide]
2 | D (D=>20 uM) | Oc1cccc(C2(CNc3ccc(-c4ccc5[nH]ncc5c4)nn3)CCC2)n1 [6-({[(6-(1H-indazol-5-yl)pyridazin-3-yl)amino]methyl}cyclobutyl) pyridin-2-ol]
3 | D (D=>20 uM) | Oc1cccc(C2(CNc3ccc(-c4ccc5cn[nH]c5c4)nn3)CCC2)n1 [6-({[(6-(1H-indazol-6-yl)pyridazin-3-yl)amino]methyl}cyclobutyl) pyridin-2-ol]
4 | D (D=>20 uM) | CN1CCN(C(=O)c2ccc(NCC(C)(C)c3ccc(F)cc3)nn2)CC1 [6-{[2-(4-fluorophenyl)-2-methylpropyl]amino}pyridazin-3-yl 4-methylpiperazinyl ketone]
5 | D (D=>20 uM) | CC(C)(CNc1ccc(C(=O)N2CCOCC2)nn1)c1ccc(F)cc1 [6-{[2-(4-fluorophenyl)-2-methylpropyl]amino}pyridazin-3-yl morpholin-4-yl ketone]
6 | D (D=>20 uM) | CC(C)(CNc1ccc(C(=O)N2CCNCC2)nn1)c1ccc(F)cc1 [6-{[2-(4-fluorophenyl)-2-methylpropyl]amino}pyridazin-3-yl piperazinyl ketone]
7 | D (D=>20 uM) | CC(C)(CNc1ccc(C#N)nn1)c1ccc(F)cc1 [6-{[2-(4-fluorophenyl)-2-methylpropyl]amino}pyridazine-3-carbonitrile]
8 | C (C=10-20 uM) | CC(C)(CNc1ccc(C(N)=O)nn1)c1ccc(F)cc1 [6-{[2-(4-fluorophenyl)-2-methylpropyl]amino}pyridazine-3-carboxamide]
9 | D (D=>20 uM) | CC(C)(CNc1ccc(C(=O)O)nn1)c1ccc(F)cc1 [6-{[2-(4-fluorophenyl)-2-methylpropyl]amino}pyridazine-3-carboxylic acid]

Same assay, conditions: median AC1.4 class, procedure of Example 39

Row | Compound | Mean AC1.4
10 | N#Cc1ccc(NCC2(c3ncccc3F)CCC2)nn1 [6-((1-(3-Fluoropyridin-2-yl)cyclobutyl)methylamino)pyridazine-3-carbonitrile] | D (D=>20 uM)
11 | NC(=O)c1ccc(F)c(-c2ccc(NC3(c4cccc(C(N)=O)n4)CCC3)nn2)c1 [6-({[6-(3-carbamoyl-6-fluorophenyl)pyridazin-3-yl]amino}cyclobutyl)pyridine-2-carboxamide] | D (D=>20 uM)
12 | NC(=O)c1csc2nc(-c3ccc(NC[C@]4(c5ncccc5F)C[C@H](F)C4)nn3)cn12 [6-[6-({[3-fluoro-1-(3-fluoro(2-pyridyl))cyclobutyl]methyl}ami-no)pyridazin-3-yl]imidazo[2,1-b]1,3-thiazoline-3-carboxamide] | A (A=<1 uM)
13 | NC(=O)c1csc2nc(-c3ccc(NCC4(c5ncccc5F)CCC4)nn3)cn12 [6-[6-({[(3-fluoro-2-pyridyl)cyclobutyl]methyl}ami-no)pyridazin-3-yl]imidazo[2,1-b]1,3-thiazoline-3-carboxamide] | A (A=<1 uM)
14 | O=C(O)c1csc2nc(-c3ccc(NCC4(c5ncccc5F)CCC4)nn3)cn12 [6-[6-({[(3-fluoro-2-pyridyl)cyclobutyl]methyl}ami-no)pyridazin-3-yl]imidazo[2,1-b]1,3-thiazoline-3-carboxylic acid] | A (A=<1 uM)
15 | N#Cc1cncc(-c2ccc(NCC3(c4ncccc4F)CCC3)nn2)n1 [6-[6-({[(3-fluoro-2-pyridyl)cyclobutyl]methyl}ami-no)pyridazin-3-yl]pyrazine-2-carbonitrile] | B (B=1-10 uM)
16 | NC(=O)c1cncc(-c2ccc(NCC3(c4ncccc4F)CCC3)nn2)n1 [6-[6-({[(3-fluoro-2-pyridyl)cyclobutyl]methyl}ami-no)pyridazin-3-yl]pyrazine-2-carboxamide] | C (C=10-20 uM)
17 | NC(=O)c1cc(-c2ccc(NCC3(c4ncccc4F)CCC3)nn2)ncn1 [6-[6-({[(3-fluoro-2-pyridyl)cyclobutyl]methyl}ami-no)pyridazin-3-yl]pyrimidine-4-carboxamide] | B (B=1-10 uM)

Continued, values first:

Row | Mean AC1.4 | Compound
18 | B (B=1-10 uM) | CC(C)(Nc1ccc(-c2ccccc2)nn1)c1ccccc1 [(1-methyl-1-phenylethyl)(6-phenylpyridazin-3-yl)amine]
19 | B (B=1-10 uM) | N#C/N=C(/N)c1cnc(-c2ccc(NCC3(c4ncccc4F)CCC3)nn2)s1 [(2E)-3-amino-3-{2-[6-({[(3-fluoro(2-pyridyl))cyclobutyl]methyl}ami-no)pyridazin-3-yl](1,3-thiazol-5-yl)}-2-azaprop-2-enenitrile]
20 | A (A=<1 uM) | N[C@H](CO)C(=O)NCc1cnc(-c2ccc(NCC3(c4ncccc4F)CCC3)nn2)s1 [(2R)-2-amino-N-({2-[6-({[(3-fluoro(2-pyridyl))cyclobutyl]methyl}ami-no)pyridazin-3-yl](1,3-thiazol-5-yl)}methyl)-3-hydroxypropanamide]
21 | A (A=<1 uM) | C[C@@H](N)C(=O)NCc1cnc(-c2ccc(NCC3(c4ncccc4F)CCC3)nn2)s1 [(2R)-2-amino-N-({2-[6-({[(3-fluoro(2-pyridyl))cyclobutyl]methyl}ami-no)pyridazin-3-yl](1,3-thiazol-5-yl)}methyl)propanamide]
22 | A (A=<1 uM) | N[C@@H](CO)C(=O)NCc1cnc(-c2ccc(NCC3(c4ncccc4F)CCC3)nn2)s1 [(2S)-2-amino-N-({2-[6-({[(3-fluoro(2-pyridyl))cyclobutyl]methyl}ami-no)pyridazin-3-yl](1,3-thiazol-5-yl)}methyl)-3-hydroxypropanamide]
23 | A (A=<1 uM) | C[C@H](N)C(=O)NCc1cnc(-c2ccc(NCC3(c4ncccc4F)CCC3)nn2)s1 [(2S)-2-amino-N-({2-[6-({[(3-fluoro(2-pyridyl))cyclobutyl]methyl}ami-no)pyridazin-3-yl](1,3-thiazol-5-yl)}methyl)propanamide]

Same assay, conditions: median AC1.4 reported as class; procedure of Example 39

Row | Compound | Mean AC1.4
24 | NC(=O)c1ccc(NCC2(c3ncccc3F)CCC2)nn1 [6-({[(3-fluoro-2-pyridyl)cyclobutyl]methyl}ami-no)pyridazine-3-carboxamide] | D (D=>20 uM)
25 | O=C(O)c1ccc(NCC2(c3ncccc3F)CCC2)nn1 [6-({[(3-fluoro-2-pyridyl)cyclobutyl]methyl}ami-no)pyridazine-3-carboxylic acid] | D (D=>20 uM)
26 | O=C1NCc2ccc(-c3ccc(NC[C@]4(c5ncccc5F)C[C@H](F)C4)nn3)cc21 [6-[6-({[3-fluoro-1-(3-fluoro(2-pyridyl))cyclobutyl]methyl}ami-no)pyridazin-3-yl]isoindolin-1-one] | B (B=1-10 uM)

Other lines, results leading:

Row | Mean AC1.4 | Compound
27 | B (B=1-10 uM) | O=c1cc(-c2ccc(NCC3(c4ncccc4F)CCC3)nn2)nc2[nH]ccn12 [7-[6-({[(3-fluoro-2-pyridyl)cyclobutyl]methyl}ami-no)pyridazin-3-yl]-4-hydro-4-imidazolino[1,2-a]pyrimidin-5-one]
28 | A (A=<1 uM) | C[C@@H](O)C(=O)NCc1cnc(-c2ccc(NCC3(c4ncccc4F)CCC3)nn2)s1 [(2R)-N-({2-[6-({[(3-fluoro(2-pyridyl))cyclobutyl]methyl}ami-no)pyridazin-3-yl](1,3-thiazol-5-yl)}methyl)-2-hydroxypropanamide]
29 | A (A=<1 uM) | C[C@H](O)C(=O)NCc1cnc(-c2ccc(NCC3(c4ncccc4F)CCC3)nn2)s1 [(2S)-N-({2-[6-({[(3-fluoro(2-pyridyl))cyclobutyl]methyl}ami-no)pyridazin-3-yl](1,3-thiazol-5-yl)}methyl)-2-hydroxypropanamide]
